US20190345505A1, “METHODS FOR REGULATING EXTRACTABLE PROANTHOCYANIDINS (PAS) IN PLANTS BY AFFECTING LEUCOANTHOCYANIDIN REDUCTASE (LAR)” (University of North Texas, priority 2016, published 2019)

Experiments:
[1] = biological target: T1, LAR from Desmodium uncinatum (Desmodium uncinatum, UniProt Q84V83); details: Tanner et al. 2003; read-out: reported Km of LAR towards leucocyanidin; cited from earlier work
T1 sequence (Q84V83 1-382): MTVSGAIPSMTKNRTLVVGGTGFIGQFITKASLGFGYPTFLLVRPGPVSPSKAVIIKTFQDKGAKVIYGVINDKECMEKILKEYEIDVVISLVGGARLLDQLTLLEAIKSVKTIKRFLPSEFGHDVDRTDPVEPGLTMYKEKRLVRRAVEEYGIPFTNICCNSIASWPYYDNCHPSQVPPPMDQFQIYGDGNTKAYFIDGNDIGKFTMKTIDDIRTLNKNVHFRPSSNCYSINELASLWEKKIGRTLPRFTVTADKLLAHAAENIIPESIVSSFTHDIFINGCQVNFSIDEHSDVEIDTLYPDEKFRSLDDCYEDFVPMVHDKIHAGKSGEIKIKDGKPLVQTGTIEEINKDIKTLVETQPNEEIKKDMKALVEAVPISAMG

[2] = tested on: mutated LAR (LAR/K143G); assay: Conversion of 4β-(S-cysteinyl)-epicatechin to epicatechin by mutated LAR (negative control); format: biochemical, Medicago truncatula; details: 40 μM substrate, 50 μM NADPH, 5 μg protein, 1 h, room temperature
Protocol: The full length LAR cDNA was cloned into pMal-c5x vector (New England Biolab) at the XmnI and BamHI sites. Mutations, which convert the lysine 143 codon to a glycine codon, were introduced into LAR cDNA by over-lapping PCR. The expression constructs were transformed into E. coli strain Rosetta™ 2(DE3)pLysS (EMD Millipore) competent cells. Transformed bacteria were grown in LB medium supplemented with 0.2% glucose to OD 600 of 0.5, and IPTG was added at 0.3 mM to induce protein expression. Bacteria were harvested after 4 h induction. LAR proteins were purified with amylose resin (NEB, E8021) following the manufacturer's protocol. Briefly, bacteria were lysed by sonication at 4° C. in extraction buffer (20 mM Tris pH 7.0, 200 mM NaCl, 1 mM DTT, 1 mM PMSF). […]
The above analyses indicate that the 21 minute fraction above contains cysteine and glucuronic acid conjugates of epicatechin, as well as a glucoside conjugate of epicatechin cysteine. Of these compounds, epicatechin cysteine was determined to be the best candidate for being a substrate for LAR. […] The ethyl acetate extract was dried under vacuum, dissolved in 50 μL water and analyzed by UPLC/MS.
Reactions without NADPH or LAR, with NADP^+, and with mutated LAR (LAR/K143G) were run in parallel as negative controls. Reactions were analyzed by UPLC/MS in negative mode. […] Epicatechin-cysteine content was quantified by EIC. […]

[3] = DMACA reactivity; format: physicochemical; details: Five μL of 1 mM compound added to 200 mL 0.2% DMACA stain solution
Protocol: Seeds of the lar mutant accumulated more than twice the level of 4β-(S-cysteinyl)-epicatechin than wild-type plants (FIGS. 14B and 14C), whereas none was detected in the anr mutant, and MYB5 over-expressing hairy roots accumulated more than three times the level of epicatechin-cysteine found in MYB14 over-expressing hairy roots. […] DMACA reactivity of epicatechin-cysteine was also measured. Five μL of 1 mM epicatechin or epicatechin-cysteine were added to 200 mL 0.2% DMACA stain solution. OD values of absorbance at 640 nm were measured as: Epicatechin=OD 0.71, Epicatechin-cysteine=OD 0.34, and Blank=OD 0.05. Epicatechin-cysteine reacted with DMACA reagent to produce a less intense blue color than epicatechin, consistent with the weak DMACA staining of lar mutant seeds.

SMILES | Km [1] [µM] | activity of mutated LAR on substrate (epicatechin formation, UPLC/MS) [2] | OD values of absorbance at 640 nm (DMACA reactivity) [3] [OD]
Oc1cc(O)c2c(c1)OC(c1ccc(O)c(O)c1)C(O)C2O (stereo not drawn) [leucocyanidin] | 6 | – | –
N[C@@H](CS[C@H]1c2c(O)cc(O)cc2O[C@H](c2ccc(O)c(O)c2)[C@@H]1O)C(=O)O [4β-(S-cysteinyl)-epicatechin] | – | no activity | 0.34
